Read-outs that look alike come from different tables or passages of the source. Numbered stars: 1 amine (or outer) side, 2 acyl side, 3 side chain; on linkers, the order of the positions; unused ones are H or OH. Bridge positions count the residues as written; N and C are the ends. Square brackets hold non-standard residues; d marks the D form. Peptide text beside a SMILES is read from it. TBMB = c1c(C[*:1])cc(C[*:3])cc1C[*:2]; hArg = N=C(N)NCCCC[C@H](N)C(=O)O; Aze = O=C(O)[C@@H]1CCN1

The nature of data set [1]: Plasma stability profiling Method #1 (MALDI-TOF, 35% plasma), human plasma. The conditions noted are these: MALDI TOF assay (Methods #1 and #2), t=0, 21 and 46 hrs. In kind it is in vitro ADME. As to the method: A rapid plasma stability profiling assay was developed that employed mass spectrometric detection (MALDI-TOF, Voyager DE, Applied Biosystems) of the parent mass, until the time when the parent peptide mass was no longer observable. Specifically, 200 uM of peptide was incubated in the presence of 35% rat or human plasma (Sera labs, using citrate as anticoagulant) at 37 deg C., which was supplemented with 1×PBS (derived from a 10×PBS Stock, Sigma). […] Samples were frozen at −80 deg C. until the time of analysis. For mass spectrometric analysis that determines the approximate detection window of the peptide, the acetonitrile:H2O-diluted sample of a given time point was spotted directly (0.7 uL) onto the MALDI plate. Matrix (alpha-cyanocinnamic acid, Sigma, prepared as a saturated solution in 1:1 acetonitrile:water containing 0.1% trifluoroacetic acid) was layered over the sample (1 uL). At a similar laser intensity setting on the MALDI TOF, the time could then be determined until parent peptide was no longer detectable. It should be noted that this is a qualitative assay serves to detect relative changes in plasma stability.

The nature of data set [2]: Intravenous pharmacokinetics in Sprague Dawley rats. In kind it is in vivo. The conditions noted are these: rat; for half-life: iv, 5.2 mg/kg. As to the method: Peptides were applied as intravenous boli in PBS-buffered solution at 1.02 mg/mL (containing 2.9% DMSO) at 5.2 mg/kg to Sprague Dawley rats, and serial blood samples were taken from each animal via temporary indwelling tall vein cannulae at 5, 10, 20, 30, 60, 120, and 240 minutes post dose, and transferred to EDTA tubes for plasma generation. Data was acquired for peptide “all D Ac-06-34-18” from 3 rats, for “Ac-(06-34-18) Phe2 Aze3 Tyr4 HArg5 Ala(ψCH2NH)6” from two rats, and for “Ac-(06-34-18) Phe2 Aze3 Tyr4 HArg5 D-Asp9” from two rats.
Plasma samples were then treated with 3 volumes of a 1:1 mixture of acetonitrile and methanol, precipitated proteins were removed by centrifugation, and the supernatant was analysed by UPLC-MS/MS.
Quantification for peptide content in the samples was by reference to a calibration line prepared in control rat plasma. Pharmacokinetic parameters were determined by non-compartmental analysis using the software package PK Solutions 2.0 from Summit Research Services.

Data set [3] is described as follows: Plasma stability profiling Method #1 (MALDI-TOF, 35% plasma), rat plasma. The data set is classed as in vitro ADME. As to conditions: for stability in rat plasma compared to wildtype peptide: MALDI TOF assay (Methods #1 and #2), t=0, 21 and 46 hrs. Put shortly:
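Qualitative test: 200 µM peptide incubated at 37 °C in 35% rat or human citrated plasma supplemented with PBS, sampled at 0, 3, 24 h then daily up to 10 days. Parent mass tracked by MALDI-TOF; value is time until parent peptide no longer detectable.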

Data set [4] deals with T1, rat plasma Kallikrein (Rattus norvegicus, UniProt P14272).
T1 construct: polyhistidine tag (N, cleaved yes); proTEV cleavage site (pro-peptide linker) (N, cleaved yes); made in house; host or cells: HEK-293 (suspension-adapted)
The data set is described as follows: Functional enzyme inhibition assay with fluorogenic substrate Z-PheArg-AMC, rat plasma Kallikrein. In kind it is biochemical. As to conditions: Table 26b, loop 1 and loop 2 modified derivatives. As to the method: Functional enzyme assays were conducted in 10 mM Tris HCl, 150 mM NaCl, 10 mM MgCl2, 1 mM CaCl2) and 1 mg/mL BSA (all Sigma UK) pH7.4 at 25° C. in solid black 96 well plates. Briefly 26.5 pM human plasma Kallikrein (purchased from Stratech, UK) or 500 pM rat plasma Kallikrein (expressed and purified in house) were incubated in the absence or presence of increasing concentrations of test peptide for 15 minutes before addition of the fluorogenic substrate Z-PheArg-AMC (Enzo Lifesciences UK) to a final assay concentration of 100 μM in 4% DMSO. Release of AMC was measured using a Pherastar FS (BMG Labtech), excitation 360 nm, emission 460 nm. The rate of the linear phase of the reaction, typically 5 to 45 minutes, was calculated in MARS data analysis software (BMG labtech). The rate was then used to calculate the IC50 and Ki in Prism (GraphPad). A four parameter inhibition non-linear regression equation was used to calculate the IC50.
Peptides were dissolved as the TFA-salts in their powder form, and stock solutions were usually prepared in water. All solutions were centrifuged and filtered ([…] syringe filters) prior absorption measurement at 280 nm. Extinction coefficients were calculated based on the Trp/Tyr content of the peptide, and that of TMB (the TMB core, when contained in a peptide, has an ε of ˜300 M^−1cm^−1). For peptides containing non-natural amino acids with suspected chromophoric properties (i.e. NorHar, 4PhenylPro, 3Pal, 4Pal, Tic, 4GuanPhe, 4,4-BPAI, 3,3-DPA, 1NAI, 2NAI, 4BenzylPro, Ind) concentrations were determined by weighing the powder and dissolving the peptide in a defined quantity of water.

In data set [5] the target is T2, human plasma Kallikrein (Homo sapiens, UniProt P03952).
T2 construct: purchased Stratech, UK
In words: Functional enzyme inhibition assay with fluorogenic substrate Z-PheArg-AMC, human plasma Kallikrein. The conditions noted are these: for F (Kivar/KiWT): ratio of Ki to wild type. In kind it is biochemical. Put shortly:
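Rates of AMC release (excitation 360 nm, emission 460 nm) from 100 μM final Z-PheArg-AMC, 4% DMSO, were taken over the linear phase, typically 5 to 45 minutes. IC50 from four-parameter non-linear regression; Ki also derived.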

The conditions of data set [6]: Table 1; Method #3; cited from earlier work.
Data set [7] in a line: Quantitative plasma stability Method #3 (LC-MS, 95% plasma), rat plasma. In kind it is in vitro ADME. As to conditions: for half-life at 5 uM: rat, plasma. As to the method: (§1) To obtain plasma stability quantitatively, peptide stock solutions (1 mM in DMSO) were shipped to Biofocus, UK, who performed the analysis. Peptides were diluted to 100 uM with water, and diluted 1:20 in plasma (5 uM final concentration, with the plasma at 95%), sampled as appropriate, precipitated as above, and quantified using a Waters Xevo TQ-MS.

Data set [8] deals with T2, human plasma Kallikrein. The conditions noted are these: Table 1, as disclosed in PCT/EP2012/069898; cited from earlier work.
The target in data set [9] is T1, rat plasma Kallikrein.
Data set [10] can be described thus: Quantitative plasma stability Method #3 (LC-MS, 95% plasma), human plasma. The data set is classed as in vitro ADME. As to conditions: Table 2, ex vivo human plasma, read-out: Human Plasma Stability (t½ in hrs) (converted). As to the method: as §1
The conditions of data set [11]: Table 1; Method #1; cited from earlier work.
The nature of data set [12]: Plasma stability / fragment profiling Method #2 (MALDI-TOF, 95% plasma), human plasma. The data set is classed as in vitro ADME. An outline of the steps:
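Peptide at 50 uM final in 95% human plasma without PBS; timed samples frozen at −80 °C, then extracted with 1:1 acetonitrile:methanol. Supernatant mixed with 30 mM ammonium bicarbonate and analysed by MALDI-TOF; qualitative fragment profiling of relative stability over time.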

In a further data set the target is factor XIa (hfXIa) (Homo sapiens, UniProt P03951). As to conditions: highest concentration tested (10 μM); cited from earlier work.
The next data set deals with thrombin (Homo sapiens, UniProt P00734). As to conditions: highest concentration tested (10 μM); cited from earlier work.
The next data set addresses rat PK (Rattus norvegicus, UniProt P14272). The conditions noted are these: highest concentration tested (10 μM); cited from earlier work.
The target in a further data set is human PK (hPK) (Homo sapiens, UniProt P03952). The conditions noted are these: cited from earlier work.
The mark [13] stands for this setting: Sprague Dawley, plasma, intravenous bolus 5.2 mg/kg, read-out: elimination half-life.
The mark [14] stands for this setting: Sprague Dawley, plasma, intravenous, read-out: t1/2 elimination.

T2 sequence (P03952 20-638): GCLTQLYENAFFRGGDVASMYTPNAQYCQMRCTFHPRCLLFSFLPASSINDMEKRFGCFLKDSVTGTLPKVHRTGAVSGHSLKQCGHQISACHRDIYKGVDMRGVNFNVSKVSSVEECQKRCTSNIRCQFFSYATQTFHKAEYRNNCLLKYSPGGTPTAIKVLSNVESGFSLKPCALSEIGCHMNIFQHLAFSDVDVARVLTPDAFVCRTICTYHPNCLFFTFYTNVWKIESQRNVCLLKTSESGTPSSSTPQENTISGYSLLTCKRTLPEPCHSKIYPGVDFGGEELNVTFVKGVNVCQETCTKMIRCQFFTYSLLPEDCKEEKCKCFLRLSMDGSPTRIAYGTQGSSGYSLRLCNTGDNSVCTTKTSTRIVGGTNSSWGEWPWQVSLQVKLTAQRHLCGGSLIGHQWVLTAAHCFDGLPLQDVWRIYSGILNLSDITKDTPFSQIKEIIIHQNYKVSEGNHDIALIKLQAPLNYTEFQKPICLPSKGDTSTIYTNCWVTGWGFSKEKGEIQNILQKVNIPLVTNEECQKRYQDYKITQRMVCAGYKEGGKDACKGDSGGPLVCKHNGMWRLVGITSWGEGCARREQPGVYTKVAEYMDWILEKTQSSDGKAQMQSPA
T1 sequence (P14272 391-638 limits assumed): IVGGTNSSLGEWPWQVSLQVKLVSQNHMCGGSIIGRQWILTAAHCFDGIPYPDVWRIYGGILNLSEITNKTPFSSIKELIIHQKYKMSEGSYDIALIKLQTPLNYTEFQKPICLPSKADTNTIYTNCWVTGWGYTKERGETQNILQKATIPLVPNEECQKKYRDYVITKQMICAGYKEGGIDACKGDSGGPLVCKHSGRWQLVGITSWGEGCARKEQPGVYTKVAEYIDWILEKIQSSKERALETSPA
Chain of human PK (hPK) (P03952 20-638): as the sequence (P03952 20-638) above
Chain of factor XIa (hfXIa) (P03951 388-625 limits assumed): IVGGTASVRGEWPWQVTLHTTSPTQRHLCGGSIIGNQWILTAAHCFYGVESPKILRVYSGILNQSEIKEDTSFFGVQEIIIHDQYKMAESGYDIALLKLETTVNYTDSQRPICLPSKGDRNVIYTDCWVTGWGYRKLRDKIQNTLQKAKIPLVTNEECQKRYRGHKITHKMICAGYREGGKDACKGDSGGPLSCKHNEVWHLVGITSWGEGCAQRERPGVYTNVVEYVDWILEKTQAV
Chain of factor XIa (hfXIa) (P03951 19-387 partner limits assumed): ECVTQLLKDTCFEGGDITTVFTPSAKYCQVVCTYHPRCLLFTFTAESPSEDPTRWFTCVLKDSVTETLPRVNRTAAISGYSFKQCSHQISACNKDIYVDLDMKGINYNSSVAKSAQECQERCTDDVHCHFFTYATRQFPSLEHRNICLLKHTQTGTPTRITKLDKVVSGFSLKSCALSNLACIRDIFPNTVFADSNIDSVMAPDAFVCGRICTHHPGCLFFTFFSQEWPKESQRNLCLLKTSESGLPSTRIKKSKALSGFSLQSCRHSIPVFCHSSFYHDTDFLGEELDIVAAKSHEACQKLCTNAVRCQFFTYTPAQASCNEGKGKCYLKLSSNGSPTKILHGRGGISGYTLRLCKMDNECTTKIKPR
Chain of rat PK (P14272 20-638): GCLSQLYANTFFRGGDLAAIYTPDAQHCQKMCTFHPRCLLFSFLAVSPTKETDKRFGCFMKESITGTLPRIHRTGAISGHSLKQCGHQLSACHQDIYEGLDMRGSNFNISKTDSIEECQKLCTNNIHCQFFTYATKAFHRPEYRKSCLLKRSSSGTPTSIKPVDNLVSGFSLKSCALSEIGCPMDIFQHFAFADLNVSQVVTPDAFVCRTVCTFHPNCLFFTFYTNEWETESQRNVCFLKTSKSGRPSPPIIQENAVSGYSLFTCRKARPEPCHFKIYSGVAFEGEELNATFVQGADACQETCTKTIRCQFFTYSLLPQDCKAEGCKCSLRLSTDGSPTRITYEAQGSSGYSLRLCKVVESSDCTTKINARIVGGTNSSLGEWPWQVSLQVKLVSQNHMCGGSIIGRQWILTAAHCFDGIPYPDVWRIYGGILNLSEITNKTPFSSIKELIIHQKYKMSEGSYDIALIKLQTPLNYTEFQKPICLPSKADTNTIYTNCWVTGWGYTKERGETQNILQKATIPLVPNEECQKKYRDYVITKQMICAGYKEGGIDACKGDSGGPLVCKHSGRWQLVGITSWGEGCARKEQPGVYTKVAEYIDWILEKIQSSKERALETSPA

As usually defined, the clearance is a measure of how efficiently the substance is removed, as volume per time. A lower clearance goes with a low capacity for elimination. As to `CC(=O)N[C@H]1CSCc2cc3cc(c2)CSC[C@H](NC(=O)[C@H](CCCCNC(=N)N)NC(=O)[C@H](Cc2ccc(O)cc2)NC(=O)[C@@H]2CCN2C(=O)[C@H](Cc2ccccc2)NC(=O)[C@H](CO)NC1=O)C(=O)N[C@@H](C)CN[C@@H](Cc1c[nH]cn1)C(=O)N[C@@H](CCC(N)=O)C(=O)N[C@@H](CC(=O)O)C(=O)N[C@@H](CC(C)C)C(=O)N[C@H](C(N)=O)CSC3`, the “stability in human plasma compared to wildtype peptide” value in data set [1] was “remarkably enhanced stability”. The same compound came in with a clearance in data set [2] (Sprague Dawley, plasma, intravenous bolus 5.2 mg/kg) of 5.8 mL/min/kg. For the same compound, the half-life in data set [2] (setting [13]) and in data set [2] (setting [14]) was 48 min each time. In data set [2] (intravenous), the “Clearance based on AUC0-∞” value worked out at 6.2 mL/min/kg. The “Volume of distribution based on AUC0-∞” value in [2] (intravenous) was determined as 0.44 L/kg. The “stability in rat plasma compared to wildtype peptide” value in [3] was “remarkably enhanced stability”.

Turning to `CC(=O)N[C@H]1CSCc2cc3cc(c2)CSC[C@H](NC(=O)[C@H](CCCCNC(=N)N)NC(=O)[C@H](Cc2ccc(O)cc2)NC(=O)[C@@H]2CCN2C(=O)[C@H](Cc2ccccc2)NC(=O)[C@H](CO)NC1=O)C(=O)N[C@@H](CC(C)C)C(=O)N[C@@H](Cc1c[nH]cn1)C(=O)N[C@@H](CCC(N)=O)C(=O)N[C@H](CC(=O)O)C(=O)N[C@@H](CC(C)C)C(=O)N[C@H](C(N)=O)CSC3` (Ac-CSF[Aze]Y[hArg]CLHQ[dD]LC-NH2; linker 1-7-13 via TBMB), the Ki at rat plasma Kallikrein [4] was 14 nM; at human plasma Kallikrein [5] (Table 26b, loop 1 and loop 2 modified derivatives, read-out: Ki (nM) (human kallikrein)) it was 0.9 nM. Also, the “stability in human plasma compared to wildtype peptide” value in data set [1] was “remarkably enhanced stability”. Further, the half-life was about 27 min in data set [2] (setting [13]) and 27 min in data set [2] (setting [14]). Further, in [3], the “stability in rat plasma compared to wildtype peptide” value is given as “remarkably enhanced stability”.

For `CC(=O)N[C@H]1CSCc2cc3cc(c2)CSC[C@H](NC(=O)[C@H](Cc2ccc(NC(=N)N)cc2)NC(=O)[C@H](C)NC(=O)[C@@H]2CCCN2C(=O)[C@H](Cc2c[nH]c4ccccc24)NC(=O)[C@H](CO)NC1=O)C(=O)N[C@@H](CC(C)C)C(=O)N[C@@H](Cc1c[nH]cn1)C(=O)N[C@@H](CCC(N)=O)C(=O)N[C@@H](CC(=O)O)C(=O)N[C@@H](CC(C)C)C(=O)N[C@H](C(N)=O)CSC3` [Ac-(06-34-18) 4GuanPhe5], in data set [6], the “t1/2 (hrs) in rat plasma” value is 2.8 h. In addition, the half-life at 5 uM in data set [7] (Table 15, method #3, read-out: t1/2 (hrs) in rat plasma (converted)) was 2.8 h. Further, the Ki at human plasma Kallikrein [8] was 0.34 nM; at rat plasma Kallikrein [9] (Table 1; read-out: Ki (nM) (rat kallikrein); cited from earlier work), 3 nM; on human plasma Kallikrein [5] (Table 15, read-out: Ki (nM) (human kallikrein)) it was 0.34 nM. Besides, the “reduction in potency/affinity compared to wildtype” value on human plasma Kallikrein [5] came out at 2 fold.

Turning to `CC(=O)N[C@H]1CSCc2cc3cc(c2)CSC[C@H](NC(=O)[C@H](CCCNC(=N)N)NC(=O)[C@H](Cc2ccc(O)cc2)NC(=O)[C@@H]2CCCN2C(=O)[C@H](Cc2ccccc2)NC(=O)[C@H](CO)NC1=O)C(=O)N[C@@H](CC(C)C)C(=O)N[C@@H](Cc1c[nH]cn1)C(=O)N[C@@H](CCC(N)=O)C(=O)N[C@@H](CC(=O)O)C(=O)N[C@@H](CC(C)C)C(=O)N[C@H](C(N)=O)CSC3` [Ac-(06-34-18) Phe2 Tyr4] (Ac-CSFPYRCLHQDLC-NH2; linker 1-7-13 via TBMB), the “t1/2 (hrs) in rat plasma” value in data set [6] was 0.9 h; in data set [7] (Table 23, method #3) it was 0.9 h. For the same compound, the “Rat Plasma Stability (t½ in hrs)” value in data set [7] (Table 2, ex vivo rat plasma, Method #3) is 54 min. For the same compound, the half-life at 5 uM in data set [7] (method #3, read-out: half-life in rat plasma (t1/2) (converted)) is 0.9 h; in [10], 84 min. The “Observable in rat plasma, for days” value in data set [11] is listed as 2 days; in [3] (Table 21, method #1), 2 days; in data set [3] (Table 23, comparative stabilities estimated according to method #1) it was 2 days. Further, the “Fragments (human plasma)” value in [12] (Table 3a, peptide fragments observed after incubation in human plasma) was “-LHQ”. For the same compound, the “degradation / fragments in human plasma (in words)” value in data set [12] (running text and figure legends) was “fragments with His7-Gln8, Leu6, and Leu6-His7-Gln8 removed”. Further, the Ki was 7.6 nM at rat plasma Kallikrein [9] (read-out: Ki (nM) (rat kallikrein); Table 1; cited from earlier work); 0.9 nM at human plasma Kallikrein [5] (Ki (nM) (human kallikrein), Table 26a, loop2 stability enhanced candidates); 0.42 nM at human plasma Kallikrein [5] (Ki (nM) human Kai, Table 2). The “F (Kivar/KiWT)” value at human plasma Kallikrein [5] (Table 3a) and on human plasma Kallikrein [5] (Table 24b) was 1 throughout.

Broadly, the IC50 is the concentration needed to halve the response being measured. Turning to H-ACSDRFRNCPADEALCG-NH2 [PK15], at factor XIa (hfXIa), the “inhibition of factor XIa (hfXIa)” value is on record as “did not inhibit”. Moreover, the inhibition of thrombin result on thrombin is recorded as “did not inhibit”. Further, the “inhibition of rat PK” value on rat PK is “did not inhibit”. On human PK (hPK) (Heinis et al. 2009, read-out: Kl human PK (hPK)), the Ki is 3 nM. Also, on human PK (hPK) (background, read-out: IC50 binding constant for human Kallikrein), the IC50 is 1.7 nM.

The record behind these values is US10118947B2, “Modulation of structured polypeptide specificity” (BICYCLE THERAPEUTICS LIMITED, priority 2013, dated 2018).
